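How tested: cells in 96-well plates exposed to compound for 48 hours at five concentrations. GI50 = concentration required for 50% inhibition of growth.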 Calls of active or inactive are those of the source. Cut-off read from the data, not from the text of the source: active = GI50 up to about 1.1 µM and inactive = higher.
Columns and labels:
Experiment in all cases: growth of human tumour cells (NCI), 48 h
786-0 = test system: 786-0
A498 = test system: A498
A549 = test system: A549
ACHN = test system: ACHN
BT-549 = test system: BT-549
CAKI-1 = test system: CAKI-1
CCRF-CEM = test system: CCRF-CEM
COLO 205 = test system: COLO 205
DU-145 = test system: DU-145
EKVX = test system: EKVX
HCC 2998 = test system: HCC 2998
HCT-116 = test system: HCT-116
HCT-15 = test system: HCT-15
HL-60 = test system: HL-60
HOP-62 = test system: HOP-62
HOP-92 = test system: HOP-92
HT-29 = test system: HT-29
Hs-578T = test system: Hs-578T
IGROV-1 = test system: IGROV-1
K562 = test system: K562
KM12 = test system: KM12
LOX IMVI = test system: LOX IMVI
M14 = test system: M14
MCF7 = test system: MCF7
MDA-MB-231 = test system: MDA-MB-231
MDA-MB-435 = test system: MDA-MB-435
MDA-N = test system: MDA-N
MOLT-4 = test system: MOLT-4
Malme-3M = test system: Malme-3M
NCI-H226 = test system: NCI-H226
NCI-H23 = test system: NCI-H23
NCI-H460 = test system: NCI-H460
NCI-H522 = test system: NCI-H522
NCI/ADR-RES = test system: NCI/ADR-RES
OVCAR-3 = test system: OVCAR-3
OVCAR-4 = test system: OVCAR-4
OVCAR-5 = test system: OVCAR-5
OVCAR-8 = test system: OVCAR-8
PC-3 = test system: PC-3
RXF 393 = test system: RXF 393
SF-268 = test system: SF-268
SF-295 = test system: SF-295
SF-539 = test system: SF-539
SK-MEL-28 = test system: SK-MEL-28
SK-MEL-2 = test system: SK-MEL-2
SK-MEL-5 = test system: SK-MEL-5
SK-OV-3 = test system: SK-OV-3
SN12C = test system: SN12C
SNB-19 = test system: SNB-19
SR = test system: SR
SW-620 = test system: SW-620
T47D = test system: T47D
TK-10 = test system: TK-10
U-251 = test system: U-251
UACC-257 = test system: UACC-257
UACC-62 = test system: UACC-62
UO-31 = test system: UO-31
RPMI-8226 = test system: RPMI-8226
SNB-75 = test system: SNB-75

SMILES: COc1cc(O)c2c(=O)c3ccccc3n(C)c2c1
- GI50 (786-0): 21.5 µM (inactive)
- GI50 (A498): 90.4 µM (inactive)
- GI50 (A549): > 100 µM (inactive)
- GI50 (ACHN): 14 µM (inactive)
- GI50 (BT-549): 52.2 µM (inactive)
- GI50 (CAKI-1): > 100 µM (inactive)
- GI50 (CCRF-CEM): 24 µM (inactive)
- GI50 (COLO 205): > 100 µM (inactive)
- GI50 (DU-145): > 100 µM (inactive)
- GI50 (EKVX): 0.555 µM (active)
- GI50 (HCC 2998): > 100 µM (inactive)
- GI50 (HCT-116): 10.2 µM (inactive)
- GI50 (HCT-15): 43.5 µM
- GI50 (HL-60): > 100 µM (inactive)
- GI50 (HOP-62): 15.9 µM (inactive)
- GI50 (HOP-92): 46.1 µM (inactive)
- GI50 (HT-29): > 100 µM (inactive)
- GI50 (Hs-578T): 13.4 µM (inactive)
- GI50 (IGROV-1): > 100 µM (inactive)
- GI50 (K562): > 100 µM (inactive)
- GI50 (KM12): > 100 µM (inactive)
- GI50 (LOX IMVI): 84.5 µM (inactive)
- GI50 (M14): > 100 µM (inactive)
- GI50 (MCF7): > 100 µM (inactive)
- GI50 (MDA-MB-231): 71.3 µM (inactive)
- GI50 (MDA-MB-435): > 100 µM (inactive)
- GI50 (MDA-N): > 100 µM (inactive)
- GI50 (MOLT-4): 8.43 µM (inactive)
- GI50 (Malme-3M): > 100 µM (inactive)
- GI50 (NCI-H226): > 100 µM (inactive)
- GI50 (NCI-H23): > 100 µM (inactive)
- GI50 (NCI-H460): 4.48 µM (inactive)
- GI50 (NCI-H522): 22.3 µM (inactive)
- GI50 (NCI/ADR-RES): 32.7 µM (inactive)
- GI50 (OVCAR-3): > 100 µM (inactive)
- GI50 (OVCAR-4): 89.3 µM (inactive)
- GI50 (OVCAR-5): > 100 µM (inactive)
- GI50 (OVCAR-8): 18.7 µM (inactive)
- GI50 (PC-3): > 100 µM (inactive)
- GI50 (RXF 393): 14.9 µM (inactive)
- GI50 (SF-268): 53.7 µM (inactive)
- GI50 (SF-295): 27.7 µM (inactive)
- GI50 (SF-539): 28.4 µM (inactive)
- GI50 (SK-MEL-28): > 100 µM (inactive)
- GI50 (SK-MEL-2): > 100 µM (inactive)
- GI50 (SK-MEL-5): 4.66 µM (inactive)
- GI50 (SK-OV-3): 26.8 µM (inactive)
- GI50 (SN12C): > 100 µM (inactive)
- GI50 (SNB-19): 0.253 µM (active)
- GI50 (SR): 7.26 µM (inactive)
- GI50 (SW-620): 63.8 µM (inactive)
- GI50 (T47D): > 100 µM (inactive)
- GI50 (TK-10): 20.1 µM (inactive)
- GI50 (U-251): 29.4 µM (inactive)
- GI50 (UACC-257): > 100 µM (inactive)
- GI50 (UACC-62): 24.6 µM (inactive)
- GI50 (UO-31): 6.85 µM (inactive)

SMILES: CC(=O)Nc1cc2cc(NS(=O)(=O)c3ccc(Cl)c(Cl)c3)ccc2oc1=O
- GI50 (786-0): 17.4 µM (inactive)
- GI50 (A498): 20 µM (inactive)
- GI50 (A549): 32.7 µM (inactive)
- GI50 (ACHN): 42 µM (inactive)
- GI50 (BT-549): 49.1 µM (inactive)
- GI50 (CAKI-1): 20 µM (inactive)
- GI50 (CCRF-CEM): 53.8 µM (inactive)
- GI50 (COLO 205): 25.5 µM (inactive)
- GI50 (DU-145): > 100 µM (inactive)
- GI50 (EKVX): 68.5 µM (inactive)
- GI50 (HCC 2998): 40.5 µM (inactive)
- GI50 (HCT-116): 28.2 µM (inactive)
- GI50 (HCT-15): 90.6 µM
- GI50 (HL-60): 43.5 µM (inactive)
- GI50 (HOP-62): 19.8 µM (inactive)
- GI50 (HOP-92): 20.8 µM (inactive)
- GI50 (HT-29): 35.3 µM (inactive)
- GI50 (Hs-578T): 22.4 µM (inactive)
- GI50 (IGROV-1): 75.9 µM (inactive)
- GI50 (K562): 56.5 µM (inactive)
- GI50 (KM12): 25.1 µM (inactive)
- GI50 (LOX IMVI): 20 µM (inactive)
- GI50 (M14): 64.1 µM (inactive)
- GI50 (MCF7): 21.2 µM (inactive)
- GI50 (MDA-MB-231): 17.2 µM (inactive)
- GI50 (MDA-MB-435): 36.1 µM (inactive)
- GI50 (MDA-N): 51.8 µM (inactive)
- GI50 (MOLT-4): 27.4 µM (inactive)
- GI50 (NCI-H226): 31.8 µM (inactive)
- GI50 (NCI-H23): > 100 µM (inactive)
- GI50 (NCI-H460): 37.8 µM (inactive)
- GI50 (NCI-H522): 23.4 µM (inactive)
- GI50 (NCI/ADR-RES): 34.2 µM (inactive)
- GI50 (OVCAR-3): > 100 µM (inactive)
- GI50 (OVCAR-4): 30.3 µM (inactive)
- GI50 (OVCAR-5): > 100 µM (inactive)
- GI50 (OVCAR-8): 17.8 µM (inactive)
- GI50 (PC-3): 22.4 µM (inactive)
- GI50 (RPMI-8226): 40.3 µM (inactive)
- GI50 (RXF 393): 12.5 µM (inactive)
- GI50 (SF-268): 26.2 µM (inactive)
- GI50 (SF-295): 19.6 µM (inactive)
- GI50 (SF-539): 25.1 µM (inactive)
- GI50 (SK-MEL-28): 35 µM (inactive)
- GI50 (SK-MEL-2): 20.3 µM (inactive)
- GI50 (SK-MEL-5): 28.1 µM (inactive)
- GI50 (SN12C): 25.8 µM (inactive)
- GI50 (SNB-19): 34.4 µM (inactive)
- GI50 (SR): 33.9 µM (inactive)
- GI50 (SW-620): 50.7 µM (inactive)
- GI50 (T47D): 3.21 µM (inactive)
- GI50 (TK-10): 43.2 µM (inactive)
- GI50 (U-251): 22.6 µM (inactive)
- GI50 (UACC-257): > 100 µM (inactive)
- GI50 (UACC-62): 24.4 µM (inactive)
- GI50 (UO-31): 46 µM (inactive)

SMILES: CC1(C)C2CCC1(C)C(OC(=O)/C=C/C(=O)OC1CC3CCC1(C)C3(C)C)C2 (stereo not drawn)
- GI50 (786-0): 72.9 µM (inactive)
- GI50 (A498): > 100 µM (inactive)
- GI50 (A549): > 100 µM (inactive)
- GI50 (ACHN): > 100 µM (inactive)
- GI50 (BT-549): 44.7 µM (inactive)
- GI50 (CAKI-1): > 100 µM (inactive)
- GI50 (CCRF-CEM): 11.4 µM (inactive)
- GI50 (COLO 205): 75.2 µM (inactive)
- GI50 (DU-145): > 100 µM (inactive)
- GI50 (EKVX): > 100 µM (inactive)
- GI50 (HCC 2998): 64.4 µM (inactive)
- GI50 (HCT-116): 56.9 µM (inactive)
- GI50 (HCT-15): 68.7 µM
- GI50 (HL-60): 16.9 µM (inactive)
- GI50 (HOP-62): > 100 µM (inactive)
- GI50 (HOP-92): 24.8 µM (inactive)
- GI50 (HT-29): 40 µM (inactive)
- GI50 (Hs-578T): 63 µM (inactive)
- GI50 (IGROV-1): > 100 µM (inactive)
- GI50 (K562): 31.9 µM (inactive)
- GI50 (KM12): > 100 µM (inactive)
- GI50 (LOX IMVI): 21.7 µM (inactive)
- GI50 (M14): 76.9 µM (inactive)
- GI50 (MCF7): 19.3 µM (inactive)
- GI50 (MDA-MB-231): > 100 µM (inactive)
- GI50 (MDA-MB-435): 67.3 µM (inactive)
- GI50 (MDA-N): 60.4 µM (inactive)
- GI50 (MOLT-4): 16.9 µM (inactive)
- GI50 (NCI-H23): 47.9 µM (inactive)
- GI50 (NCI-H460): 67.9 µM (inactive)
- GI50 (NCI-H522): 41 µM (inactive)
- GI50 (NCI/ADR-RES): > 100 µM (inactive)
- GI50 (OVCAR-3): 48.8 µM (inactive)
- GI50 (OVCAR-4): > 100 µM (inactive)
- GI50 (OVCAR-5): > 100 µM (inactive)
- GI50 (OVCAR-8): > 100 µM (inactive)
- GI50 (PC-3): > 100 µM (inactive)
- GI50 (RXF 393): 58.9 µM (inactive)
- GI50 (SF-268): > 100 µM (inactive)
- GI50 (SF-295): > 100 µM (inactive)
- GI50 (SF-539): > 100 µM (inactive)
- GI50 (SK-MEL-28): 18.9 µM (inactive)
- GI50 (SK-MEL-2): 61.7 µM (inactive)
- GI50 (SK-MEL-5): 17.9 µM (inactive)
- GI50 (SN12C): 82.2 µM (inactive)
- GI50 (SNB-19): 51.4 µM (inactive)
- GI50 (SNB-75): 0.902 µM (active)
- GI50 (SR): 20.1 µM (inactive)
- GI50 (SW-620): 38.1 µM (inactive)
- GI50 (T47D): > 100 µM (inactive)
- GI50 (TK-10): > 100 µM (inactive)
- GI50 (U-251): 46.1 µM (inactive)
- GI50 (UACC-257): 31 µM (inactive)
- GI50 (UACC-62): 31.2 µM (inactive)
- GI50 (UO-31): > 100 µM (inactive)
